Source: US20260265189A1, “NOVEL COMPOUND, AND PHARMACEUTICAL COMPOSITION COMPRISING SAME AS ACTIVE INGREDIENT” (SAPIENSBIO INC., priority 2022, published 2026)

Tested on: α-SMA expression in MRC5 cells
Assay: inhibition of α-SMA expression in MRC5 cells, image screening method
Assay type: cell-based
Conditions: Homo sapiens; MRC5, compound 10 μM, TGF-β1 5 ng/mL, 72 hours, relative to TGF-β1 alone; read-out: Inhibitory activity (α-SMA expression inhibition)
Procedure: The ability of the compounds according to the present invention to inhibit the expression of α-SMA, which is a biomarker for pulmonary fibrosis, was evaluated by an image screening method. MRC5 cells were treated with the compound (10 μM) or DMSO under the condition of TGF-31 (5 ng/mL). 72 hours later, the cells were fixed with a 4% formaldehyde solution, treated with a 0.1% Triton-x100 solution, and treated with a 1% BSA solution to mask non-specific binding caused by antibodies. Anti-α-SMA-FITC (Sigma Aldrich) and anti-GAPDH (Cell Signaling Technology) were used as primary antibodies, and anti-mouse-TRITC was used as a secondary antibody. Imaging and analysis of the results were performed using Cytation5_Gen5_Version 3.12.08 (Bio Tek). Relative to the α-SMA expression level when TGF-31 was treated alone, the α-SMA expression level when both the compound and TGF-31 were treated was calculated as the ability of α-SMA expression inhibition of the corresponding compound.

SMILES | inhibition at 10 µM
CC(C)CN1CCC(CNC(=O)N2CCN(c3ccc(F)cc3)c3cc(F)ccc32)CC1 [Compound 35, 6-fluoro-4-(4-fluorophenyl)-N-((1-isobutylpiperidin-4-yl)methyl)-3,4-dihydroquinoxaline-1(2H)-carboxamide] | ≥ 70%
CC(C)N1CCC(CNC(=O)N2CCN(c3ccc(F)cc3)c3cc(F)ccc32)CC1 [Compound 36, 6-fluoro-4-(4-fluorophenyl)-N-((1-isopropylpiperidin-4-yl)methyl)-3,4-dihydroquinoxaline-1(2H)-carboxamide] | 50 to 70%
O=C(NCc1c[nH]cn1)N1CCN(c2ccc(F)cc2)c2cc(F)ccc21 [Compound 37, N-((1H-imidazol-4-)methyl)-6-fluoro-4-(4-fluorophenyl)-3,4-dihydroquinoxaline-1(2H)-carboxamide] | 30 to 50%
COC1CCN(C(=O)N2CCN(c3ccc(F)cc3)c3cc(F)ccc32)C1 (stereo not drawn) [Compound 40, (6-fluoro-4-(4-fluorophenyl)-3,4-dihydroquinoxalin-1(2H)-yl)(3-methoxypyrrolidin-1-yl)methanone] | 10 to 30%
O=C(NC1CNC1)N1CCN(c2ccc(F)cc2)c2cc(F)ccc21 [Compound 41, N-(azetidin-3-yl)-6-fluoro-4-(4-fluorophenyl)-3,4-dihydroquinoxaline-1(2H)-carboxamide] | 30 to 50%
CC(C)CN1CC(NC(=O)N2CCN(c3ccc(F)cc3)c3cc(F)ccc32)C1 [Compound 43, 6-fluoro-4-(4-fluorophenyl)-N-(1-isobutylazetidin-3-yl)-3,4-dihydroquinoxaline-1(2H)-carboxamide] | ≥ 70%
CN1CC(CNC(=O)N2CCN(c3ccc(F)cc3)c3cc(F)ccc32)C1 [Compound 45, 6-fluoro-4-(4-fluorophenyl)-N-((1-methylazetidin-3-yl)methyl)-3,4-dihydroquinoxaline-1(2H)-carboxamide] | 50 to 70%
CC(C)N1CC(CNC(=O)N2CCN(c3ccc(F)cc3)c3cc(F)ccc32)C1 [Compound 46, 6-fluoro-4-(4-fluorophenyl)-N-((1-isopropylazetidin-3-yl)methyl)-3,4-dihydroquinoxaline-1(2H)-carboxamide] | 30 to 50%
CC(C)CN1CC(CNC(=O)N2CCN(c3ccc(F)cc3)c3cc(F)ccc32)C1 [Compound 47, 6-fluoro-4-(4-fluorophenyl)-N-((1-isobutylazetidin-3-yl)methyl)-3,4-dihydroquinoxaline-1(2H)-carboxamide] | 50 to 70%
O=C(NCC1CCOC1)N1CCN(c2ccc(F)cc2)c2cc(F)ccc21 (stereo not drawn) [Compound 48, 6-fluoro-4-(4-fluorophenyl)-N-((tetrahydrofuran-3-yl)methyl)-3,4-dihydroquinoxaline-1(2H)-carboxamide] | 10 to 30%
O=C(N[C@H]1CCNC1)N1CCN(c2ccc(F)cc2)c2ccccc21 [Compound 49, (S)-4-(4-fluorophenyl)-N-(pyrrolidin-3-yl)-3,4-dihydroquinoxaline-1(2H)-carboxamide] | 10 to 30%
O=C(NC1CCNCC1)N1CCN(c2ccc(F)cc2)c2ccccc21 [Compound 50, 4-(4-fluorophenyl)-N-(piperidin-4-yl)-3,4-dihydroquinoxaline-1(2H)-carboxamide] | 30 to 50%
O=C(NCC1CCOCC1)N1CCN(c2ccc(F)cc2)c2ccccc21 [Compound 52, 4-(4-fluorophenyl)-N-((tetrahydro-2H-pyran-4-yl)methyl)-3,4-dihydroquinoxaline-1(2H)-carboxamide] | 10 to 30%
O=C(NC[C@H]1CCNC1)N1CCN(c2ccc(F)cc2)c2ccccc21 [Compound 53, (S)-4-(4-fluorophenyl)-N-(pyrrolidin-3-ylmethyl)-3,4-dihydroquinoxaline-1(2H)-carboxamide] | 10 to 30%
CN1CC[C@H](CNC(=O)N2CCN(c3ccc(F)cc3)c3ccccc32)C1 [Compound 54, (R)-4-(4-fluorophenyl)-N-((1-methylpyrrolidin-3-yl)methyl)-3,4-dihydroquinoxaline-1(2H)-carboxamide] | 30 to 50%
CC(C)N1CC[C@H](CNC(=O)N2CCN(c3ccc(F)cc3)c3ccccc32)C1 [Compound 55, (R)-4-(4-fluorophenyl)-N-((1-isopropylpyrrolidin-3-yl)methyl)-3,4-dihydroquinoxaline-1(2H)-carboxamide] | 30 to 50%
CC(C)CN1CC[C@H](CNC(=O)N2CCN(c3ccc(F)cc3)c3ccccc32)C1 [Compound 56, (R)-4-(4-fluorophenyl)-N-((1-isobutylpyrrolidin-3-yl)methyl)-3,4-dihydroquinoxaline-1(2H)-carboxamide] | 30 to 50%
O=C(NC[C@H]1CCCN1)N1CCN(c2ccc(F)cc2)c2ccccc21 [Compound 57, (R)-4-(4-fluorophenyl)-N-(pyrrolidin-2-ylmethyl)-3,4-dihydroquinoxaline-1(2H)-carboxamide] | 30 to 50%

SMILES | inhibition at 10 µM
CN1CC[C@@H](CNC(=O)N2CCN(c3ccc(F)cc3)c3ccccc32)C1 [Compound 58, (S)-4-(4-fluorophenyl)-N-((1-methylpyrrolidin-3-yl)methyl)-3,4-dihydroquinoxaline-1(2H)-carboxamide] | 30 to 50%
CC(C)N1CC[C@@H](CNC(=O)N2CCN(c3ccc(F)cc3)c3ccccc32)C1 [Compound 59, (S)-4-(4-fluorophenyl)-N-((1-isopropylpyrrolidin-3-yl)methyl)-3,4-dihydroquinoxaline-1(2H)-carboxamide] | 30 to 50%
CC(C)CN1CC[C@@H](CNC(=O)N2CCN(c3ccc(F)cc3)c3ccccc32)C1 [Compound 60, (S)-4-(4-fluorophenyl)-N-((1-isobutylpyrrolidin-3-yl)methyl)-3,4-dihydroquinoxaline-1(2H)-carboxamide] | 50 to 70%
CC(C)CN1CC(CNC(=O)N2CCN(c3ccc(F)cc3)c3ccccc32)C1 [Compound 61, 4-(4-fluorophenyl)-N-((1-isobutylazetidin-3-yl)methyl)-3,4-dihydroquinoxaline-1(2H)-carboxamide] | 50 to 70%
O=C(NCC1CCNCC1)N1CCN(c2ccc(F)cc2)c2ccccc21 [Compound 62, 4-(4-fluorophenyl)-N-(piperidin-4-ylmethyl)-3,4-dihydroquinoxaline-1(2H)-carboxamide] | 30 to 50%
CC(C)N1CCC(CNC(=O)N2CCN(c3ccc(F)cc3)c3ccccc32)CC1 [Compound 63, 4-(4-fluorophenyl)-N-((1-isopropylpiperidin-4-yl)methyl)-3,4-dihydroquinoxaline-1(2H)-carboxamide] | 30 to 50%
CC(C)CN1CCC(CNC(=O)N2CCN(c3ccc(F)cc3)c3ccccc32)CC1 [Compound 64, 4-(4-fluorophenyl)-N-((1-isobutylpiperidin-4-yl)methyl)-3,4-dihydroquinoxaline-1(2H)-carboxamide] | ≥ 70%
O=C(N[C@@H]1CCNC1)N1CCN(c2ccccc2)c2cc(F)ccc21 [Compound 65, (R)-6-fluoro-4-phenyl-N-(pyrrolidin-3-yl)-3,4-dihydroquinoxaline-1(2H)-carboxamide] | 30 to 50%
O=C(N1CCCCC1)N1CCN(c2ccccc2Cl)c2ccccc21 [Compound 66, (4-(2-chlorophenyl)-3,4-dihydroquinoxalin-1(2H)-yl)(piperidin-1-yl)methanone] | 50 to 70%
O=C(N1CCCC1)N1CCN(c2ccccc2Cl)c2ccccc21 [Compound 67] | 30 to 50%
CN1CCN(C(=O)N2CCN(c3ccccc3Cl)c3ccccc32)CC1 [Compound 68, (4-(2-chlorophenyl)-3,4-dihydroquinoxalin-1(2H)-yl)(4-methylpiperazin-1-yl)methanone] | 30 to 50%
CC(C)N1CC[C@H](NC(=O)N2CCN(c3ccccn3)c3ccccc32)C1 [Compound 69, (S)-N-(1-isopropylpyrrolidin-3-yl)-4-(pyridin-2-yl)-3,4-dihydroquinoxaline-1(2H)-carboxamide] | 10 to 30%
CC(=O)N1CC[C@@H](NC(=O)N2CCN(c3ccccn3)c3ccccc32)C1 [Compound 70, (R)-N-(1-acetylpyrrolidin-3-yl)-4-(pyridin-2-yl)-3,4-dihydroquinoxaline-1(2H)-carboxamide] | 10 to 30%
O=C(NC[C@H]1CCNC1)N1CCN(c2ccccn2)c2ccccc21 [Compound 71, (S)-4-(pyridin-2-yl)-N-(pyrrolidin-3-ylmethyl)-3,4-dihydroquinoxaline-1(2H)-carboxamide] | 30 to 50%
O=C(NC[C@H]1CCCN1)N1CCN(c2ccccn2)c2ccccc21 [Compound 72, (R)-4-(pyridin-2-yl)-N-(pyrrolidin-2-ylmethyl)-3,4-dihydroquinoxaline-1(2H)-carboxamide] | 30 to 50%
O=C(N[C@@H]1CCOC1)N1CCN(c2cccnc2)c2ccccc21 [Compound 73, (R)-4-(pyridin-3-yl)-N-(tetrahydrofuran-3-yl)-3,4-dihydroquinoxaline-1(2H)-carboxamide] | 30 to 50%
O=C(NCC1CC1)N1CCN(c2ccncc2)c2ccccc21 [Compound 74, N-(cyclopropylmethyl)-4-(pyridin-4-yl)-3,4-dihydroquinoxaline-1(2H)-carboxamide] | 30 to 50%
N#Cc1ccc(N2CCN(C(=O)NC[C@H]3CCNC3)c3ccccc32)cc1 [Compound 79, (S)-4-(4-cyanophenyl)-N-(pyrrolidin-3-ylmethyl)-3,4-dihydroquinoxaline-1(2H)-carboxamide] | 10 to 30%
